Experimental data as given in paper PMC11079024, “Identification of a family of species-selective complex I inhibitors as potential anthelmintics” (Nature Communications, 2024).
Read-outs that look alike come from different tables or passages of the source.

Assays:
[1] = molecular target: C. elegans (N2) complex I (NADH:ubiquinone oxidoreductase) (Caenorhabditis elegans, UniProt P24887+Q93873+Q94360); assay: biochemical; format: biochemical; settings: for activity at 0.0001 µM / activity at 0.0005 µM / activity at 0.001 µM / activity at 0.0025 µM / activity at 0.005 µM / activity at 0.013 µM / activity at 0.025 µM / activity at 0.063 µM / activity at 0.125 µM / activity at 0.313 µM / activity at 0.625 µM / activity at 1.5 µM / activity at 3 µM / activity at 15 µM / activity at 37.5 µM / activity at 75 µM: read-out: C. elegans mitochondrial complex I activity; for Log IC50 C. elegans complex I: log10 of IC50 in µM, C. elegans mitochondria
Sequence of C. elegans (N2) complex I (NADH:ubiquinone oxidoreductase) (Q94360 17-199): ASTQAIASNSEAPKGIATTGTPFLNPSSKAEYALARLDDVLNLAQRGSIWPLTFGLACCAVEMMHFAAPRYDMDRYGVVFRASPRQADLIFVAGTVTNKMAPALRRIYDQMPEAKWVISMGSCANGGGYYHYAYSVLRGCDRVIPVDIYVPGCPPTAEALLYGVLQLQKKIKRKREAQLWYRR
Sequence of C. elegans (N2) complex I (NADH:ubiquinone oxidoreductase) (P24887 whole entry): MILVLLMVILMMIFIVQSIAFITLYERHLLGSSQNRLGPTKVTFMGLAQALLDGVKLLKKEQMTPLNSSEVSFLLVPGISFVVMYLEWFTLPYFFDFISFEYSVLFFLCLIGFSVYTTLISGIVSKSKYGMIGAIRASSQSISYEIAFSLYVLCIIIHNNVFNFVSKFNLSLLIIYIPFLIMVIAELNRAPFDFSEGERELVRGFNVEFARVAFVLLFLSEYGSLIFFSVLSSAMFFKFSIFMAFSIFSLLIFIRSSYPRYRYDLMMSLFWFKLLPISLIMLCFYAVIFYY
Sequence of C. elegans (N2) complex I (NADH:ubiquinone oxidoreductase) (Q93873 31-482): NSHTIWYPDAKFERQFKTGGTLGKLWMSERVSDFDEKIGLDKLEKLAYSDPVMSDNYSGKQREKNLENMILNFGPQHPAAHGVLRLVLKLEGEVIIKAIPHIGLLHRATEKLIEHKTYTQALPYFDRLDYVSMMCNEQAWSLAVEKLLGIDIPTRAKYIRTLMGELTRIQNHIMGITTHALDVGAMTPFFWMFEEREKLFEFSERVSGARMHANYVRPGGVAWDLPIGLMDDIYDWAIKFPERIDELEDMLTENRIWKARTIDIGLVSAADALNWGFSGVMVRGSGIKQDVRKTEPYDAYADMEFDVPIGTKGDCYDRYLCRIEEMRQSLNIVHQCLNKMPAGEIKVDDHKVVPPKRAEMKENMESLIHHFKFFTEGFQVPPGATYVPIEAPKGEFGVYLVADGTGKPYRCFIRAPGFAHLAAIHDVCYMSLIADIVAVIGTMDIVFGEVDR
Method in brief: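 Mitochondria, 0.2 mg/mL protein, freeze-thawed three times, assayed in 25 mM KPi pH 7.5 with BSA, 80 μM NADH, 60 μM decylubiquinone, 160 μM DCIP, antimycin A and KCN. Rate from initial linear slope of A600 over 15 min. % of solvent control.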

[2] = molecular target: B. taurus (heart) complex I (Bos taurus, UniProt P03887+P17694+P42026); assay: biochemical; format: biochemical; settings: for IC50: B. taurus heart mitochondria, read-out: B. taurus Complex I IC50; for activity at 0.0001 µM / activity at 0.0005 µM / activity at 0.001 µM / activity at 0.0025 µM / activity at 0.005 µM / activity at 0.013 µM / activity at 0.025 µM / activity at 0.063 µM / activity at 0.125 µM / activity at 0.313 µM / activity at 0.625 µM / activity at 1.5 µM / activity at 3 µM / activity at 15 µM / activity at 37.5 µM / activity at 75 µM: read-out: B. taurus mitochondrial complex I activity; for Log IC50 B. taurus complex I: log10 of IC50 in µM, B. taurus mitochondria
Sequence of B. taurus (heart) complex I (P03887 whole entry): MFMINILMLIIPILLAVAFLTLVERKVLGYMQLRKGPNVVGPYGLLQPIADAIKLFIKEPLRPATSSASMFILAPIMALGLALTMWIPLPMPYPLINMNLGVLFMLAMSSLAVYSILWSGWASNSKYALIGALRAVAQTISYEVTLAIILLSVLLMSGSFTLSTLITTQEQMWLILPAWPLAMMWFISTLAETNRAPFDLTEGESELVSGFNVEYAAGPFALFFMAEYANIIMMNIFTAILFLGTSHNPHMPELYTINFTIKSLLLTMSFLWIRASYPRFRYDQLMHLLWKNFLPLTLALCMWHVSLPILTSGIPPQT
Sequence of B. taurus (heart) complex I (P17694 34-463): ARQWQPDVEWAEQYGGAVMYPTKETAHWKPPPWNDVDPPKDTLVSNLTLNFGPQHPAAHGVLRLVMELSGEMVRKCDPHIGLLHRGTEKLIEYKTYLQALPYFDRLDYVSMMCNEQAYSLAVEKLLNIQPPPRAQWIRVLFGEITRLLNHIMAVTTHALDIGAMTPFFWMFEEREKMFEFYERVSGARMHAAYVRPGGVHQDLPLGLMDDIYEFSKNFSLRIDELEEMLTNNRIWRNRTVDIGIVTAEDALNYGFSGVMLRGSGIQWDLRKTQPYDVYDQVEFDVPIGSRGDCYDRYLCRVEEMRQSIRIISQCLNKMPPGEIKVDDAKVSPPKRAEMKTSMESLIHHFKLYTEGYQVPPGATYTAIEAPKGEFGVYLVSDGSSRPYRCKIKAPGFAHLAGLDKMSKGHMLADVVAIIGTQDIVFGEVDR
Sequence of B. taurus (heart) complex I (P42026 38-216): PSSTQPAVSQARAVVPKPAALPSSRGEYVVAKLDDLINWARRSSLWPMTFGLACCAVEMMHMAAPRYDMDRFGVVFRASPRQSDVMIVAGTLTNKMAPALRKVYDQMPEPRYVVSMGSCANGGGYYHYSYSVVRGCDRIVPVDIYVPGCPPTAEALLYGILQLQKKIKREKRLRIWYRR
Method in brief: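 Complex I activity followed as DCIP reduction (600 nm, 30 s reads, 15 min) with 80 μM NADH and 60 μM decylubiquinone in 25 mM KPi pH 7.5 containing 2 μM antimycin A and 2 mM KCN. Freeze-thawed mouse or bovine heart mitochondria at 0.2 mg/mL; initial-rate percent of solvent control, single-point 100 μM or dose-response.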

[3] = in vitro complex I dose response on C. elegans mitochondria, average of at least two biological replicates, fit in R (DRC), read-out: IC50 C. elegans complex I
[4] = wild-type (N2) mitochondria, read-out: C. elegans Complex I IC50
[5] = wild-type C. elegans mitochondria, read-out: C. elegans Complex I IC50
[6] = wild-type C. elegans mitochondria, estimated from fitted dose-response curves, read-out: C. elegans Complex I IC50
[7] = estimated from fitted dose-response curves

Clc1ccc(Cn2cnc3ccccc32)cc1Cl [Compound 5571325]
activity at 0.0001 µM [1]: 90.4%
activity at 0.0005 µM [1]: 92.7%
activity at 0.001 µM [1]: 95.2%
activity at 0.0025 µM [1]: 95.4%
activity at 0.005 µM [1]: 92.8%
activity at 0.013 µM [1]: 92.4%
activity at 0.025 µM [1]: 92.1%
activity at 0.063 µM [1]: 90.9%
activity at 0.125 µM [1]: 87.7%
activity at 0.313 µM [1]: 83.6%
activity at 0.625 µM [1]: 83%
activity at 1.5 µM [1]: 69.7%
activity at 3 µM [1]: 57.2%
activity at 15 µM [1]: 19%
activity at 37.5 µM [1]: 8.47%
activity at 75 µM [1]: 7.02%
IC50 [1, 3]: 4.38 µM
Log IC50 C. elegans complex I [1]: 0.64 µM
IC50 [1, 4]: 4.38 µM
IC50 [1, 5]: 4.38 µM
IC50 [2]: 11.5 µM
activity at 0.0001 µM [2]: 97.2%
activity at 0.0005 µM [2]: 100%
activity at 0.001 µM [2]: 100%
activity at 0.0025 µM [2]: 99.4%
activity at 0.005 µM [2]: 97.3%
activity at 0.013 µM [2]: 88.2%
activity at 0.025 µM [2]: 96.9%
activity at 0.063 µM [2]: 95.3%
activity at 0.125 µM [2]: 96%
activity at 0.313 µM [2]: 92.8%
activity at 0.625 µM [2]: 96.3%
activity at 1.5 µM [2]: 89.7%
activity at 3 µM [2]: 83.9%
activity at 15 µM [2]: 36%
activity at 37.5 µM [2]: 5.23%
activity at 75 µM [2]: 1.54%
Log IC50 B. taurus complex I [2]: 1.06 µM

Cc1ccc(C(C)C)c(OCC(O)Cn2cnc3ccccc32)c1 (centres unmarked) [Compound 6093301]
activity at 0.0001 µM [1]: 99.6%
activity at 0.0005 µM [1]: 97.6%
activity at 0.001 µM [1]: 98.6%
activity at 0.0025 µM [1]: 105%
activity at 0.005 µM [1]: 96.1%
activity at 0.013 µM [1]: 93.6%
activity at 0.025 µM [1]: 90.6%
activity at 0.063 µM [1]: 81.2%
activity at 0.125 µM [1]: 72.6%
activity at 0.313 µM [1]: 50.3%
activity at 0.625 µM [1]: 38.5%
activity at 1.5 µM [1]: 20.3%
activity at 3 µM [1]: 11.5%
activity at 15 µM [1]: 1.13%
activity at 37.5 µM [1]: 0%
activity at 75 µM [1]: 0%
IC50 [1, 3]: 0.36 µM
Log IC50 C. elegans complex I [1]: -0.44 µM
IC50 [1, 6]: 0.36 µM
IC50 [2, 7]: 2.07 µM
activity at 0.0001 µM [2]: 94.9%
activity at 0.0005 µM [2]: 95.3%
activity at 0.001 µM [2]: 95.9%
activity at 0.0025 µM [2]: 100%
activity at 0.005 µM [2]: 99.5%
activity at 0.013 µM [2]: 100%
activity at 0.025 µM [2]: 96.1%
activity at 0.063 µM [2]: 94%
activity at 0.125 µM [2]: 90%
activity at 0.313 µM [2]: 81.5%
activity at 0.625 µM [2]: 75.8%
activity at 1.5 µM [2]: 60.4%
activity at 3 µM [2]: 45.2%
activity at 15 µM [2]: 18%
activity at 37.5 µM [2]: 13.4%
activity at 75 µM [2]: 11.2%
Log IC50 B. taurus complex I [2]: 0.32 µM

CCn1c(C(C)c2ccc(CC(C)C)cc2)nc2ccccc21 (centres unmarked) [STK951902]
IC50 [1, 3]: 1.83 µM
Log IC50 C. elegans complex I [1]: 0.26 µM
IC50 [1, 4]: 1.83 µM
IC50 [1, 6]: 1.83 µM
IC50 [2, 7]: 12.5 µM
Log IC50 B. taurus complex I [2]: 1.10 µM

Cc1nc2ccccc2n1CCOc1ccccc1 [Compound 5550112]
activity at 0.0001 µM [1]: 88.8%
activity at 0.0005 µM [1]: 84.9%
activity at 0.001 µM [1]: 88.8%
activity at 0.0025 µM [1]: 93.8%
activity at 0.005 µM [1]: 86.7%
activity at 0.013 µM [1]: 87.2%
activity at 0.025 µM [1]: 83.3%
activity at 0.063 µM [1]: 78.1%
activity at 0.125 µM [1]: 80.5%
activity at 0.313 µM [1]: 78%
activity at 0.625 µM [1]: 89.4%
activity at 1.5 µM [1]: 71.3%
activity at 3 µM [1]: 60.5%
activity at 15 µM [1]: 24.9%
activity at 37.5 µM [1]: 11.1%
activity at 75 µM [1]: 5.83%
IC50 [1, 3]: 5.79 µM
Log IC50 C. elegans complex I [1]: 0.76 µM
IC50 [1, 5]: 5.79 µM
IC50 [2]: 9.86 µM
activity at 0.0001 µM [2]: 101%
activity at 0.0005 µM [2]: 97.8%
activity at 0.001 µM [2]: 105%
activity at 0.0025 µM [2]: 102%
activity at 0.005 µM [2]: 103%
activity at 0.013 µM [2]: 98.3%
activity at 0.025 µM [2]: 99.2%
activity at 0.063 µM [2]: 91.8%
activity at 0.125 µM [2]: 95.1%
activity at 0.313 µM [2]: 92.8%
activity at 0.625 µM [2]: 96.9%
activity at 1.5 µM [2]: 85.2%
activity at 3 µM [2]: 74.2%
activity at 15 µM [2]: 36.6%
activity at 37.5 µM [2]: 16.7%
activity at 75 µM [2]: 5.1%
Log IC50 B. taurus complex I [2]: 0.99 µM

FC(F)(F)c1cccc(OCCCCn2cnc3ccccc32)c1 [Compound 7925004]
activity at 0.0001 µM [1]: 115%
activity at 0.0005 µM [1]: 105%
activity at 0.001 µM [1]: 110%
activity at 0.0025 µM [1]: 110%
activity at 0.005 µM [1]: 105%
activity at 0.013 µM [1]: 103%
activity at 0.025 µM [1]: 105%
activity at 0.063 µM [1]: 104%
activity at 0.125 µM [1]: 98%
activity at 0.313 µM [1]: 81.9%
activity at 0.625 µM [1]: 91.2%
activity at 1.5 µM [1]: 67.6%
activity at 3 µM [1]: 48.6%
activity at 15 µM [1]: 22.1%
activity at 37.5 µM [1]: 13.1%
activity at 75 µM [1]: 1.4%
IC50 [1, 3]: 2.06 µM
Log IC50 C. elegans complex I [1]: 0.31 µM
IC50 [1, 4]: 2.06 µM
IC50 [1, 6]: 2.06 µM
IC50 [2, 7]: 13 µM
activity at 0.0001 µM [2]: 92.5%
activity at 0.0005 µM [2]: 92.1%
activity at 0.001 µM [2]: 90.6%
activity at 0.0025 µM [2]: 88.9%
activity at 0.005 µM [2]: 89.8%
activity at 0.013 µM [2]: 84.7%
activity at 0.025 µM [2]: 87.1%
activity at 0.063 µM [2]: 85.1%
activity at 0.125 µM [2]: 81.8%
activity at 0.313 µM [2]: 83.3%
activity at 0.625 µM [2]: 88.4%
activity at 1.5 µM [2]: 81.4%
activity at 3 µM [2]: 76.3%
activity at 15 µM [2]: 35.9%
activity at 37.5 µM [2]: 9.66%
activity at 75 µM [2]: 1.95%
Log IC50 B. taurus complex I [2]: 1.11 µM

C=CCn1c(-c2ccc(N(C)C)cc2)nc2ccccc21 [Compound 6873298]
IC50 [1, 3]: 13.2 µM
Log IC50 C. elegans complex I [1]: 1.12 µM
IC50 [1, 6]: 13.2 µM
IC50 [2, 7]: 21 µM
Log IC50 B. taurus complex I [2]: 1.32 µM
